Measurements reported in ChEMBL document CHEMBL1201862, “PubChem BioAssay data set” (2004).
Active and inactive are the calls of the source.

How the values were obtained:
[1] = target: T1, Probable nicotinate-nucleotide adenylyltransferase (Staphylococcus aureus (strain N315), UniProt P65502); assay type: functional, Staphylococcus aureus subsp. aureus N315; settings: read-out: IC50_Mean;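 on IC50 Mean: confirmatory dose-response retesting of NadD inhibitor hits first found in an ultra-high-throughput screen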
T1 sequence (P65502 whole entry): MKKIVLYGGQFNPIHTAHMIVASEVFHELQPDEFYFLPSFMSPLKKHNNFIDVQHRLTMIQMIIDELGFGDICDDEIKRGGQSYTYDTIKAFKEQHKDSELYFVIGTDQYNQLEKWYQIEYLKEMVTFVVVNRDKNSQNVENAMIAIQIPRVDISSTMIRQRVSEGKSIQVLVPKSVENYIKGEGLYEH

[2] = target: T1, Probable nicotinate-nucleotide adenylyltransferase; assay type: functional, Staphylococcus aureus subsp. aureus N315
fMet-Leu-Phe receptor = target: T2, fMet-Leu-Phe receptor (Homo sapiens, UniProt P21462); assay: formyl peptide receptor binders – dose response (AID 519); assay type: functional
T2 sequence (P21462 whole entry): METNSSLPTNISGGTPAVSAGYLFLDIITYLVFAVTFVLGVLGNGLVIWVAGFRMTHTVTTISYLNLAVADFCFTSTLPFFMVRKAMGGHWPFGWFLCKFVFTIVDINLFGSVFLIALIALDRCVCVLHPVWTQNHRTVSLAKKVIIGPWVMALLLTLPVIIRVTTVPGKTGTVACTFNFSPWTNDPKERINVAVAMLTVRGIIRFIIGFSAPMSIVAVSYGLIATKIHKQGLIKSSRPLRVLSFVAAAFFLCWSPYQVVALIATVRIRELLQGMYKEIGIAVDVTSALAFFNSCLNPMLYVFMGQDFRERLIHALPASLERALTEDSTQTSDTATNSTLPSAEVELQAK

Beta-galactosidase = Beta-galactosidase (Escherichia coli, UniProt Q8VNN2); assay: Dose response counterscreen for EBI2 assay utilizing the enzyme, b-galactosidase.; assay type: functional
Beta-galactosidase, sequence (Q8VNN2 whole entry): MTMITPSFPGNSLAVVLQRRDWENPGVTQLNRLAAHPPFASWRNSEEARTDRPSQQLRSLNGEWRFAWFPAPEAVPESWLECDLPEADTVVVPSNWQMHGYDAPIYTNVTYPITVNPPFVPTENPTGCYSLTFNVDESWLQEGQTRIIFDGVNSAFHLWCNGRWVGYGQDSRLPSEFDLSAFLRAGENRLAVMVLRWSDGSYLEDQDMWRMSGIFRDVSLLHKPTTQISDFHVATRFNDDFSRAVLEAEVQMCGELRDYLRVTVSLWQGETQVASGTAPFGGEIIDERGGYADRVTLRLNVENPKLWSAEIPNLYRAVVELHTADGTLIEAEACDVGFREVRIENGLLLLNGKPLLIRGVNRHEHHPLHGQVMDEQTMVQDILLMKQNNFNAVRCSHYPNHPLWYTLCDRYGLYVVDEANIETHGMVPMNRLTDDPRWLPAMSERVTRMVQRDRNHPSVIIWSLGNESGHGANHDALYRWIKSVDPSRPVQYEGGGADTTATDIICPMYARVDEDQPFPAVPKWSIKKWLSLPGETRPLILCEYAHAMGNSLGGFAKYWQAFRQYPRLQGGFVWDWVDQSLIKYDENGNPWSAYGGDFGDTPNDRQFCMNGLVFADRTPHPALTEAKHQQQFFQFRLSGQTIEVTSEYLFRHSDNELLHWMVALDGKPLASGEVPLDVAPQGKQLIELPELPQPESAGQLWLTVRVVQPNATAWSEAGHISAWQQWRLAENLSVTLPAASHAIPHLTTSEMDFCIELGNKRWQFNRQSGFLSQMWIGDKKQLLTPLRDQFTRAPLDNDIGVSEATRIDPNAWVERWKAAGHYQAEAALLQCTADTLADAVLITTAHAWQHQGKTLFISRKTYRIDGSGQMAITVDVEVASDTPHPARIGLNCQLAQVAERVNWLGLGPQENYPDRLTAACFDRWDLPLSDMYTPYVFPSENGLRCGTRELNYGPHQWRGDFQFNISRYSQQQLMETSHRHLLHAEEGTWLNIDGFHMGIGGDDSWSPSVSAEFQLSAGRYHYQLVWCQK

[3] = target: T3, Corticotropin-releasing factor receptor 2/Corticotropin-releasing factor-binding protein (Homo sapiens, UniProt P24387+Q13324); assay: activators of CRF receptor 2 with binding protein – uHTS hits, confirmation (AID 602473); assay type: functional; settings: read-out: EC50_Mean
T3 sequence (Q13324 whole entry): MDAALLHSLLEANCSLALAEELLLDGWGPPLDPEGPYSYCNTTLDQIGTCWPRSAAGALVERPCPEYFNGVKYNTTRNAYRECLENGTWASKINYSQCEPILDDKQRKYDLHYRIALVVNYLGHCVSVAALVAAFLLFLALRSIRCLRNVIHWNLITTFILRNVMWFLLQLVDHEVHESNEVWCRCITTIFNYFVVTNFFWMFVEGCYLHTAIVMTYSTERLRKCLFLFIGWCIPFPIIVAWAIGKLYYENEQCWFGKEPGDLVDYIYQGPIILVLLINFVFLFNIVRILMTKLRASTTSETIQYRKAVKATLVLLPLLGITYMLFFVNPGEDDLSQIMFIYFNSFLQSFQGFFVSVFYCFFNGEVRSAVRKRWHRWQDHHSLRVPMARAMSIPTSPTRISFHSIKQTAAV
T3 sequence (P24387 whole entry): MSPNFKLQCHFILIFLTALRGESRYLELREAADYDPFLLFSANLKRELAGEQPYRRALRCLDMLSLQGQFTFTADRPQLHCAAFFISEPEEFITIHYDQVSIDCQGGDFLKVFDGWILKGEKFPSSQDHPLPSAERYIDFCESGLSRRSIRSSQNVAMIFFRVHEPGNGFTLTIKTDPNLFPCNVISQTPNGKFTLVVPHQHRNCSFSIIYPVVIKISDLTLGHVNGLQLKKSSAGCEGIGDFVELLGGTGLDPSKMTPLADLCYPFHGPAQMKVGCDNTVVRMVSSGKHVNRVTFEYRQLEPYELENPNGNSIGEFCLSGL

Kallikrein-7 = Kallikrein-7 (Homo sapiens, UniProt P49862); assay: Fluorescence Intensity-based biochemical primary high throughput dose response assay to identify activators of kallikrein-7 (K7) zymogen.
Kallikrein-7, sequence (P49862 whole entry): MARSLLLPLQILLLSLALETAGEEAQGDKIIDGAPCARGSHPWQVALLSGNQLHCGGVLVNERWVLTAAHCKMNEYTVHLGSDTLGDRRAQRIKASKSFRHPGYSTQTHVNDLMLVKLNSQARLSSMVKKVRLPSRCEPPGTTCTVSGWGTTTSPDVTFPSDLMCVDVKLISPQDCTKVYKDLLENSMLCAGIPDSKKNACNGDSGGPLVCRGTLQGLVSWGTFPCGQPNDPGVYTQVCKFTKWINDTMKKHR

[4] = viability of uninfected HEp-2 cells – cell-based, HTS, cytotoxicity control for RSV inhibitor project, dose response (AID 2410); assay type: functional; settings: human respiratory syncytial virus
Interleukin-8 [5] = target: T4, Interleukin-8 (Homo sapiens, UniProt P10145); assay: Dose Response confirmation of uHTS small molecule hits for cystic fibrosis induced NFkb Inhibitors in a TNFa-induced IL8 counterscreen.; assay type: functional; settings: read-out: IC50_Mean
T4 sequence (P10145 whole entry): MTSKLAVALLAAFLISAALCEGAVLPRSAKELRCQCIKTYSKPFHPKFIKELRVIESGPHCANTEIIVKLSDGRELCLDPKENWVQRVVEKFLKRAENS

HEK293 = assay: EBV LMP1 TES2 canonical NF-kB signalling blockers – cell-based, HEK293, luciferase, cherry-pick, dose response (AID 588343); assay type: functional, Homo sapiens; settings: Homo sapiens, HEK293
[6] = target: T5, Heat shock factor protein 1 (Mus musculus, UniProt P38532); assay: decrease of HSF1-responsive luciferase luminescence – cell-based, NIH3T3, dose retest, confirmation (AID 2382); assay type: functional;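 further: NIH3T3 fibroblasts with HSF1-driven luciferase reporter stressed by proteasome inhibitor MG132; luminescence from HSF1-driven luciferase expression after 8 hours of MG132 stress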
T5 sequence (P38532 whole entry): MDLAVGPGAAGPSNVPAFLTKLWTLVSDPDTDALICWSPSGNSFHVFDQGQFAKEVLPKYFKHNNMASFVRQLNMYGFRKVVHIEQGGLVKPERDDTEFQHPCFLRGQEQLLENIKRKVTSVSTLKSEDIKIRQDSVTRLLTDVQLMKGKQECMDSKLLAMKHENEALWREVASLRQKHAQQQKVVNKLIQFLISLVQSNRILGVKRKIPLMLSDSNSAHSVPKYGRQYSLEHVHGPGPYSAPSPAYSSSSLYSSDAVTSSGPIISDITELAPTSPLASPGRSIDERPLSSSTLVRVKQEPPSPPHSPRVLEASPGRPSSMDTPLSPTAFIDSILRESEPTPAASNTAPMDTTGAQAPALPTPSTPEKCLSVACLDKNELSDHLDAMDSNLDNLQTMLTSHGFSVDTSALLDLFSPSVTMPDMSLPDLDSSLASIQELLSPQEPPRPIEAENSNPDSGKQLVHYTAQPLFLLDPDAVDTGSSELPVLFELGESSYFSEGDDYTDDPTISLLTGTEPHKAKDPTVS

Interleukin-8 [7] = target: T4, Interleukin-8; assay: Dose Response confirmation of uHTS small molecule hits for cystic fibrosis induced NFkb Inhibitors in a PAF-induced IL8 counterscreen.; assay type: functional; settings: read-out: IC50_Mean

Cc1cccc(-n2nc3c(c2NC(=O)c2ccco2)CSC3)c1C
IC50 [1]: 17.8 µM (active)
IC50 [2]: 8.29 µM (active)
Ki (fMet-Leu-Phe receptor): 22.9 µM (inactive)

CN=C(S)N1N=C(c2ccc(C)cc2)CC1c1ccc(Cl)cc1 (centres undefined)
IC50 (Beta-galactosidase): > 80 µM (inactive)

O=C(/C=C/c1cccs1)N1CCC2(CC1)Oc1ccc(Cl)cc1C(=O)C21CC(c2ccccc2)=NO1 (centres undefined)
IC50 (Beta-galactosidase): > 80 µM (inactive)

CN=C(S)N1N=C(c2ccc(C)cc2)CC1c1ccc(Br)cc1 (centres undefined)
IC50 (Beta-galactosidase): > 80 µM (inactive)

CCN1CCSc2ccc(C(=O)NCc3ccccc3F)cc21
EC50 [3]: > 53 µM (inactive)
EC50 (Kallikrein-7): > 69.5 µM (inactive)

CCN(CC)c1ccc2c(C)c(CO)c(=O)oc2c1
CC50 [4]: > 50 µM (active)
EC50 (Kallikrein-7): 6.34 µM (active)

CCCCN(c1ccccc1)c1ncnc(N)c1[N+](=O)[O-]
IC50 (Interleukin-8 [5]): 39.7 µM (inactive)
AC50 (HEK293): 14.3 µM (active)
EC50 [6]: 8.33 µM (active)
IC50 (Interleukin-8 [7]): > 79 µM (inactive)
